Test results reported in patent US20080208039A1, “System and method of performing therapeutic endovascular interventions” (Wisconsin Alumni Research Foundation, priority 2007, published 2008).

Experiment: Diffusion of a fluorescent probe in swollen gelatin gel by FRAP
Format: physicochemical
Source text: To assess the stability of DTPA[Gd(III)] in the gelatin coating, the diffusion of a fluorescence probe in gelatin was studied by the technique of fluorescence recovery after photobleaching (FRAP). The instrument and data analysis scheme are described in Kim, S. H. and Yu, H., J. Phys. Chem. 1992, 96, 4034, which is hereby fully incorporated by reference. Fluorescein was used as the fluorescence probe due, in part, to its molecular size being roughly the same as that of DTPA[Gd(III)].
The focus of the study was to examine the possible retardation effects of gelatin concentration and cross-link density on the diffusion, which was determined at room temperature, i.e., below the gel point of gelatin. The diffusion of fluorescein probe slows down with the increase of gelatin concentration. The diffusion coefficient decreases from 1.5×10-10 to 9×10-12 m2s-1 when the concentration of gelatin increases from 9% to 40%. […] Accordingly, the probe diffusion is more likely controlled by the concentration of gelatin rather than the cross-link density. On the other hand, the cross-link density may determine the swelling ratio of gelatin, i.e., the concentration of gelatin in aqueous solution. […]

| SMILES | fluorescence remaining in gelatin films after soaking (gelatin films soaked in water for 18 hours, including films not cross-linked) | time to diffuse out of the gelatin coating (coating thickness 60 μm, diffusion coefficient 9×10-12 m2s-1) |
| --- | --- | --- |
| O=C1OC2(c3ccc(O)cc3Oc3cc(O)ccc32)c2ccccc21 [fluorescein] | still fluorescence signal | – |
| O=C(O)CN(CCN(CC(=O)O)CC(=O)O)CCN(CC(=O)O)CC(=O)O [DTPA, diethylenetriaminepentaacetic acid] | – | about 67 seconds |
